Assay results from patent US4835153A, “Malonic acid derivatives” (Nihon Nohyaku Co., Ltd., priority 1986, dated 1989).

How the values were obtained:
[1] = test system: hepatic disorder caused by carbon tetrachloride (liver injury, plasma glutamic pyruvic transaminase); assay: Effect of suppressing hepatic disorder caused by carbon tetrachloride; type: in vivo, mice (dd-strain, male); design: key to Liver injury index: liver injury index 0 = healthy, 2 slight, 4 evident, 6 serious injury; details: 30 mg/kg oral, 6 h before CCl4 0.05 ml/kg oral, 24 h after CCl4, mean of five mice; for Liver injury index: 0 healthy, 2 slightly affected, 4 evident injury, 6 serious injury; for p-GPT (plasma glutamic pyruvic transaminase activity): Reitman-Frankel, Karmen Units, >=2,100 calculated as 2,100
Protocol: Test Example 1 Effect of suppressing hepatic disorder caused by carbon tetrachloride. Test Method […] Six hours thereafter, carbon tetrachloride was orally administered in a proportion of 0.05 ml/kg. The animals were sacrificed 24 hours after the administration of carbon tetrachloride, and the extent of liver injury was grossly examined. On the other hand, blood was collected from the animal at the time of the sacrifice, and centrifuged to obtain plasma. The plasma glutamic pyruvic transminase (GPT) activity was determined according to the method of Reitman-Frankel. The activity was expressed in terms of Karmen Units (K.U.). The conditions of the liver were expressed in terms of liver injury index as follows. […] When the GPT activity was 2,100 units or higher, […], and the activity was calculated as 2,100 units for reasons of convenience.

[2] = acute oral toxicity to male rat (LD50); details: in vivo
Protocol: For example, LD50 value (acute oral toxicity to male rat) of the compound No. 20 is more than 1,000 mg/kg.

In the case of `CCOC(=O)C(C(=O)OC(C)c1ccccc1)=C1SC2C(S1)N(C)CCN2C` (stereo not drawn) [Compound 84], the Liver injury index [1] is reported as 0.8 and the “p-GPT (plasma glutamic pyruvic transaminase activity)” value (“p-GPT” below) [1] is reported as 37 K.U.
With `COCC(C)OC(=O)C(C(=O)OC(C)COC)=C1SC2C(S1)N(C)CCN2C` (stereo not drawn) [Compound 51] the Liver injury index [1] was 0.4 and the “p-GPT” value [1] was 18.2 K.U.
With `CCC(C)OC(=O)C(C(=O)OC(C)CC)=C1SC2NCCNC2S1` (stereo not drawn) [Compound 87] the Liver injury index [1] was 0.2 and the “p-GPT” value [1] was 21 K.U.
With `CCCOC(=O)C(C(=O)OCCC)=C1SC2C(S1)N(C(C)=O)CCN2CC` (stereo not drawn) [Compound 10] the Liver injury index [1] was 4.5 and the “p-GPT” value [1] was 2,000 K.U.
In the case of `CCN1CCN(CC)C2SC(=C(C(=O)OC)C(=O)OC)SC21` (stereo not drawn) [Compound 25], the Liver injury index [1] is reported as 0.4 and the “p-GPT” value [1] is reported as 13.2 K.U.
In the case of `COc1ccc(COC(=O)C(C(=O)OC(C)C)=C2SC3C(S2)N(C)CCN3C)cc1` (stereo not drawn) [Compound 75, Isopropyl 4-methoxybenzyl(2,5-dimethyl-2,5-diaza-7,9-dithiabicycl-[4,3,0]-nonane-8-ylidene)malonate], the Liver injury index [1] is reported as 0 and the “p-GPT” value [1] is reported as 20 K.U.
For `CCCCOC(=O)C(C(=O)OCCCC)=C1SC2C(S1)N(C)CCN2C` (stereo not drawn) [Compound 23], the Liver injury index [1] was 1.2 and the “p-GPT” value [1] was 10.2 K.U.
In the case of `CCCOC(=O)C(C(=O)OCCC)=C1SC2NCCNC2S1` (stereo not drawn) [Compound 3], the Liver injury index [1] is reported as 0.1 and the “p-GPT” value [1] is reported as 53.0 K.U.
For `C=CCOC(=O)C(C(=O)OCC=C)=C1SC2C(S1)N(CC=C)CCN2CC=C` (stereo not drawn) [Compound 49], the Liver injury index [1] was 1.2 and the “p-GPT” value [1] was 23.8 K.U.
With `CCOC(=O)C(C(=O)OCC)=C1SC2C(S1)N(C)CCN2C` (stereo not drawn) [Compound 19] the Liver injury index [1] was 1.6 and the “p-GPT” value [1] was 99 K.U.
For `COC(=O)C(C(=O)OC)=C1SC2C(S1)N(C)CCN2C` (stereo not drawn) [Compound 18], the Liver injury index [1] was 1.8 and the “p-GPT” value [1] was 166 K.U.
In the case of `C=CCN1CCN(CC=C)C2SC(=C(C(=O)OCCC)C(=O)OCCC)SC21` (stereo not drawn) [Compound 43], the Liver injury index [1] is reported as 0.2 and the “p-GPT” value [1] is reported as 51 K.U.
For `CCN1CCN(CC)C2(C)SC(=C(C(=O)OC(C)C)C(=O)OC(C)C)SC12` (stereo not drawn) [Compound 33], the Liver injury index [1] was 1.2 and the “p-GPT” value [1] was 925 K.U.
In the case of `CCOC(=O)C(C(=O)OC(C)c1ccc(Cl)cc1)=C1SC2C(S1)N(C)CCN2C` (stereo not drawn) [Compound 83], the Liver injury index [1] is reported as 0.8 and the “p-GPT” value [1] is reported as 38.6 K.U.
For `CCCCOC(=O)C(C(=O)OCC)=C1SC2C(S1)N(C)CCN2C` (stereo not drawn) [Compound 59], the Liver injury index [1] was 0.5 and the “p-GPT” value [1] was 109.2 K.U.
For `CC(C)OC(=O)C(C(=O)OC(C)c1ccc(Cl)cc1Cl)=C1SC2C(S1)N(C)CCN2C` (stereo not drawn) [Compound 79], the Liver injury index [1] was 1.4 and the “p-GPT” value [1] was 1,060 K.U.
With `CCCOC(=O)C(C(=O)OCCC)=C1SC2C(S1)N(CC)CCN2CC` (stereo not drawn) [Compound 37] the Liver injury index [1] was 1.4 and the “p-GPT” value [1] was 143 K.U.
With `CC(C)OC(=O)C(C(=O)OC(C)C)=C1SC2NCCNC2(C)S1` (stereo not drawn) [Compound 97] the Liver injury index [1] was 0.2 and the “p-GPT” value [1] was 45.0 K.U.
For `CC(C)OC(=O)C(C(=O)OC(C)C)=C1SC2NCCNC2S1` (stereo not drawn) [Compound 2, Diisopropyl(2,5-diaza-7,9-dithiabicyclo-[4,3,0]-nonane-8-ylidene)malonate], the Liver injury index [1] was 0.3 and the “p-GPT” value [1] was 24.4 K.U.
In the case of `CCOC(=O)C(C(=O)OCC(C)C)=C1SC2C(S1)N(CC)CCN2CC` (stereo not drawn) [Compound 67], the Liver injury index [1] is reported as 2.5 and the “p-GPT” value [1] is reported as 1,620 K.U.
For `CCN1CCN(CC)C2SC(=C(C(=O)OC(C)(C)C)C(=O)OC(C)(C)C)SC21` (stereo not drawn) [Compound 40], the Liver injury index [1] was 1.8 and the “p-GPT” value [1] was 164 K.U.
With `CCCOC(=O)C(C(=O)OCCC)=C1SC2NCCNC2(C)S1.Cl` (stereo not drawn) [Compound 96, Di-n-propyl(6-methyl-2,5-diaza-7,9-dithiabicyclo-[4,3,0]-nonane-8-ylidene)malonate hydrochloride salt] the Liver injury index [1] was 0.1 and the “p-GPT” value [1] was 28.0 K.U.
For `CC(C)OC(=O)C(C(=O)OC(C)C)=C1SC2C(S1)N(C)CCN2C` (stereo not drawn) [Compound 94], the Liver injury index [1] was 2.0 and the “p-GPT” value [1] was 1,534 K.U.
In the case of `CCC(COC)OC(=O)C(C(=O)OC(CC)COC)=C1SC2C(S1)N(C)CCN2C` (stereo not drawn) [Compound 63], the Liver injury index [1] is reported as 0.5 and the “p-GPT” value [1] is reported as 32.8 K.U.
In the case of `CC(C)OC(=O)C(C(=O)OC(C)C)=C1SC2C(S1)N(C)CCN2C` (stereo not drawn) [Compound 16, Diisopropyl(2,5-dimethyl-2,5-diaza-7,9-dithiabicyclo-[4,3,0]-nonane-8-ylidene)malonate], the Liver injury index [1] is reported as 0.6 and the “p-GPT” value [1] is reported as 32 K.U.
For `CCOC(=O)C(C(=O)OC(C)(C)C)=C1SC2C(S1)N(CC)CCN2CC` (stereo not drawn) [Compound 72], the Liver injury index [1] was 0.4 and the “p-GPT” value [1] was 428.6 K.U.
In the case of `Cc1ccc(C(C)OC(=O)C(C(=O)OC(C)C)=C2SC3C(S2)N(C)CCN3C)cc1` (stereo not drawn) [Compound 81], the Liver injury index [1] is reported as 1.2 and the “p-GPT” value [1] is reported as 120 K.U.
For `CCOC(=O)C(C(=O)OCC)=C1SC2NCCNC2S1` (stereo not drawn) [Compound 1], the Liver injury index [1] was 2.0 and the “p-GPT” value [1] was 225 K.U.
With `Cc1ccc(COC(=O)C(C(=O)OC(C)C)=C2SC3C(S2)N(C)CCN3C)cc1` (stereo not drawn) [Compound 74] the Liver injury index [1] was 0.6 and the “p-GPT” value [1] was 25 K.U.
In the case of `CCOC(=O)C(C(=O)OC(C)C)=C1SC2C(S1)N(C)CCN2C` (stereo not drawn) [Compound 56], the Liver injury index [1] is reported as 0 and the “p-GPT” value [1] is reported as 16.8 K.U.
In the case of `CCOC(=O)C(C(=O)OC)=C1SC2C(S1)N(C)CCN2C` (stereo not drawn) [Compound 54], the Liver injury index [1] is reported as 0 and the “p-GPT” value [1] is reported as 13.4 K.U.
With `CCCOC(=O)C(C(=O)OCCC)=C1SC2C(S1)N(C)CCN2C` (stereo not drawn) [Compound 20] the LD50 [2] was > 1000 mg/kg.
For `CC(C)OC(=O)C(C(=O)OC(C)C)=C1SC2N(C)CCN(C)C2(C)S1` (stereo not drawn) [Compound 28], the Liver injury index [1] was 1.5 and the “p-GPT” value [1] was 547 K.U.
In the case of `CCCCOC(=O)C(C(=O)OCCCC)=C1SC2C(S1)N(CC)CCN2CC` (stereo not drawn) [Compound 30], the Liver injury index [1] is reported as 0.8 and the “p-GPT” value [1] is reported as 22.8 K.U.
In the case of `CCCCOC(=O)C(C(=O)OC(C)C)=C1SC2C(S1)N(CC)CCN2CC` (stereo not drawn) [Compound 68], the Liver injury index [1] is reported as 1.5 and the “p-GPT” value [1] is reported as 914.6 K.U.
